For five compounds, IC50 results are on record in US12029739B2, “SHP2 inhibitor and use thereof” (KANAPH THERAPEUTICS INC., priority 2021, dated 2024).

The test system of test [1] is phospho-ERK in MIA PaCa2 or H358 cells. Description: Phospho-ERK assay (AlphaLisa). Conditions: 1.5 h, MIA PaCa2 or H358 cells, compound incubated 1.5 hours; read-out: IC50 (p-ERK). Type of test: cell-based.
For a further test, the target named is T1, SHP2 (full length) (Homo sapiens, UniProt Q06124).
T1 construct: SHP2 (full length, diluted to 100 pM final concentration in reaction buffer, BPS bioscience, US); purchased BPS bioscience, US
T1 sequence (Q06124 1-593): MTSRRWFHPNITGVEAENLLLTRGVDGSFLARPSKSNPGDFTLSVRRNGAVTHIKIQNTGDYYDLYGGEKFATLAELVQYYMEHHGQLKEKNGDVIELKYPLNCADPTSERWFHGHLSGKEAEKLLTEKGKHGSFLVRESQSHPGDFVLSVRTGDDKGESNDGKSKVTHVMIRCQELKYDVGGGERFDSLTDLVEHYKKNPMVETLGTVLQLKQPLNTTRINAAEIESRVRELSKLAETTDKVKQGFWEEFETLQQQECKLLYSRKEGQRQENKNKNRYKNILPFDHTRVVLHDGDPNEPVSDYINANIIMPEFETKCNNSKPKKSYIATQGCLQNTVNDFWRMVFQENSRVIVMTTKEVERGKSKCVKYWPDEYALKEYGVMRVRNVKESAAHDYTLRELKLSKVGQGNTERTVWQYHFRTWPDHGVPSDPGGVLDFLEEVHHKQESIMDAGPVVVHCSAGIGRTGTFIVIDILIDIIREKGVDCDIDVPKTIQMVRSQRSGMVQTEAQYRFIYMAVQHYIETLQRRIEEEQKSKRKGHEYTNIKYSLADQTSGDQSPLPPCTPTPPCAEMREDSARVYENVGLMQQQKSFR
The experiment in a line: Phosphatase assay (PTPase assay) with DiFMUP substrate. Type of test: biochemical. As to conditions: SHP2 activated with SHP2 activating peptide; DiFMUP 80 μM, 2 hours; fluorescence; read-out: IC50 (PTPase aS say).

Some results are limits rather than exact numbers.

One may read the IC50 as the concentration that inhibits the measured activity by half.

Take `COC(C)Cn1cnc2ccc(Sc3cnc(N4CCC5(CC4)Cc4ncccc4[C@H]5N)cn3)c(Cl)c2c1=O` (stereo partly drawn) [Example 142, 6-((5-((S)-5-amino-5,7-dihydrospiro[yclopenta[b]pyridine-6,4′-piperidin]-1′-yl)pyrazin-2-yl)thio)-5-chloro-3-(2-methoxypropyl)quinazolin-4(3H)-one]: the half-inhibitory concentration (IC50) in test [1] is less than 45 nM; at SHP2 (full length), less than 3 nM.

Regarding `C[C@@H]1OCC2(CCN(c3cnc(Sc4ccc5ncn(Cc6ccncc6)c(=O)c5c4Cl)cn3)CC2)[C@@H]1N` [Example 39, 6-((5-((3S,4S)-4-amino-3-methyl-2-oxa-8-azaspiro[4.5]decan-8-yl)pyrazin-2-yl)thio)-5-chloro-3-(pyridin-4-ylmethyl)quinazolin-4(3H)-one], the half-inhibitory concentration (IC50) in test [1] fell in the range of 45 to 1500 nM; on SHP2 (full length) it was 3 to 100 nM.

For `CC1(N)CCN(c2cnc(Sc3ccc4nc[nH]c(=O)c4c3Cl)cn2)CC1` [Example 4, 6-((5-(4-amino-4-methylpiperidin-1-yl)pyrazin-2-yl)thio)-5-chloroquinazolin-4(3H)-one], the IC50 in test [1] fell in the range of 45 to 1500 nM; at SHP2 (full length), 3 to 100 nM.

In the case of `C[C@@H]1OCC2(CCN(c3cnc(Sc4ccc5ncn(CC(=O)N6CCCCC6)c(=O)c5c4Cl)cn3)CC2)[C@@H]1N` [Example 95, 6-((5-((3S,4S)-4-amino-3-methyl-2-oxa-8-azaspiro[4.5]decan-8-yl)pyrazin-2-yl)thio)-5-chloro-3-(2-oxo-(2-piperidin-1-yl]ethyl)quinazolin-4(3H)-one], the half-maximal inhibitory concentration (IC50) in test [1] was 45 to 1500 nM; on SHP2 (full length), less than 3 nM.

Turning to `Cn1c(N2CCC(C)(N)CC2)nc(N)c(Sc2ccc3ncn(-c4ccccc4)c(=O)c3c2Cl)c1=O` [Example 30, 6-((4-amino-2-(4-amino-4-methylpiperidin-1-yl)-1-methyl-6-oxo-1,6-dihydropyrimidin-5-yl)thio)-5-chloro-3-phenylquinazolin-4(3H)-one], the IC50 in test [1] was greater than 1500 nM; on SHP2 (full length), greater than 100 nM.
